{"source": "paper PMC8963580", "about": "“Biophysical methods in early drug discovery” (ADMET & DMPK, 2019)", "key": {"InhA.NADH": {"biological_target": "InhA.NADH (Mycobacterium tuberculosis, UniProt P9WGR1)", "sequence (P9WGR1 whole entry, looked up)": "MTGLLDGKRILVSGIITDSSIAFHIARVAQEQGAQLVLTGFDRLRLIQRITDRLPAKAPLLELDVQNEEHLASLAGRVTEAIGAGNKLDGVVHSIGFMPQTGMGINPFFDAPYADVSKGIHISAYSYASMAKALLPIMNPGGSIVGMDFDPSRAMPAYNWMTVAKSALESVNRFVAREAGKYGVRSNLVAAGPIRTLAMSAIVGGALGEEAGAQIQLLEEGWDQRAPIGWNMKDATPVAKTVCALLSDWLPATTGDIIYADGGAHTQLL", "assay": "SPR profiling of DEL screening hits, in the presence of 100 μM NADH", "type": "binding"}, "Apo InhA": {"biological_target": "Apo InhA (Mycobacterium tuberculosis, UniProt P9WGR1)", "sequence (P9WGR1 whole entry, looked up)": "as above", "assay": "SPR profiling of DEL screening hits, compound injected alone", "type": "binding"}, "InhA.NAD+": {"biological_target": "InhA.NAD+ (Mycobacterium tuberculosis, UniProt P9WGR1)", "sequence (P9WGR1 whole entry, looked up)": "as above", "assay": "SPR profiling of DEL screening hits, in the presence of 2 mM NAD+", "type": "binding"}, "PHGDH": {"biological_target": "T1, PHGDH (Homo sapiens, UniProt O43175)", "T1 sequence (O43175 1-533)": "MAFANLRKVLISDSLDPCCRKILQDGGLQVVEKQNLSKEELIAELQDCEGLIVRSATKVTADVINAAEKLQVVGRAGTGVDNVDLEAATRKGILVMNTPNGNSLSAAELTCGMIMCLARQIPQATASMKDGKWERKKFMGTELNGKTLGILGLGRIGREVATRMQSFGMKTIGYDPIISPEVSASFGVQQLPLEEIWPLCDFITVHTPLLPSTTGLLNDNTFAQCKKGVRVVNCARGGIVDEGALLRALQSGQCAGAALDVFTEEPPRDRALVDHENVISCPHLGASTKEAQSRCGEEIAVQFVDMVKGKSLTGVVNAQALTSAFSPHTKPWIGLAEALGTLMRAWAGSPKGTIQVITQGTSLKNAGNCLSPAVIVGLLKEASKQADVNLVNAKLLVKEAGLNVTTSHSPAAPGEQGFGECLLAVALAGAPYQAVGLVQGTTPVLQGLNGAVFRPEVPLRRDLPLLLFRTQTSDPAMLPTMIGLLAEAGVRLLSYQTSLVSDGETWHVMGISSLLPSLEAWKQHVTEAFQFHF", "assay": "Affinity for PHGDH during fragment optimisation (method not given)", "type": "binding", "description": "The enzyme 3-phosphohydroxyglycerate dehydrogenase (PHGDH) utilises oxidised ninotinamide dinucleotide (NAD+) and catalyses the conversion of 3-phosphohydroxyglycerate to 3-phosphohydroxypyruvate in humans. The conversion of 3-phosphohydroxyglycerate to 3-phosphohydroxypyruvate is the first, and rate-limiting step, in synthesis of the amino acid serine. Studies have linked PHGDH to the in vivo tumourigenesis in aggressive breast tumours and functional genomics reveal that the serine synthesis pathway is essential in breast cancer. Thus, the druggability of the target was explored with small molecules. […] The binding affinities of these hits were determined in a 2D NMR binding assay using 15N-labeled NAD binding domain, Figure 6a. […]\nConsidering this knowledge, a 1D NMR competition assay with NAD+ as the reference compound was developed. […] It is noteworthy that fragments and many of the synthesised analogues had no measurable activity in the human PHGDH protein NAD fluorescence intensity biochemical assay. Whilst the biophysical methods allowed a wide dynamic range of weak mM to sub μM affinities be determined, the biochemical assay could only be used to provide affinities that could drive SAR once those affinities were sub micromolar. […]"}, "[1]": {"biological_target": "T2, 15N-labeled NAD binding domain of PHGDH (Homo sapiens, UniProt O43175)", "T2 sequence (O43175 93-298 limits assumed)": "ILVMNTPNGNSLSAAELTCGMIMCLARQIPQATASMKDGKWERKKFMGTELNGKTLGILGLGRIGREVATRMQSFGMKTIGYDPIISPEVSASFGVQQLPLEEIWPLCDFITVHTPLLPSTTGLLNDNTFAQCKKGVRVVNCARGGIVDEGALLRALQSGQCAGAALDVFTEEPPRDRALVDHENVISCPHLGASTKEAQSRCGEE", "assay": "2D NMR binding assay (1H15N-TROSY-HSQC chemical shift titration)", "conditions": "read-out: Kd (chemical shift change versus compound concentration)", "description": "The enzyme 3-phosphohydroxyglycerate dehydrogenase (PHGDH) utilises oxidised ninotinamide dinucleotide (NAD+) and catalyses the conversion of 3-phosphohydroxyglycerate to 3-phosphohydroxypyruvate in humans. The conversion of 3-phosphohydroxyglycerate to 3-phosphohydroxypyruvate is the first, and rate-limiting step, in synthesis of the amino acid serine. Studies have linked PHGDH to the in vivo tumourigenesis in aggressive breast tumours and functional genomics reveal that the serine synthesis pathway is essential in breast cancer. Thus, the druggability of the target was explored with small molecules. To this end a fragment screen of 384 fragments was undertaken using crystal cocktail soaking (mixtures of 4) against the NAD binding domain of PHGDH and 34 hits were identified. The binding affinities of these hits were determined in a 2D NMR binding assay using 15N-labeled NAD binding domain, Figure 6a. […] A simple analogue of an initial crystallography hit (compound 1), the 5-fluoroindole-2-carboxamide (compound 2) bound at a resolution of 1.95 Å in the adenine pocket of the NAD binding site (Figure 6b). The indole NH forms a water-bridged hydrogen bond network with Ser-211, and the 5-fluoro substituent fits nicely into a lipophilic cleft in the binding pocket. […]"}, "[2]": {"biological_target": "T3, NAD binding domain of PHGDH (Homo sapiens, UniProt O43175)", "T3 sequence (O43175 93-298 limits assumed)": "T2 sequence (O43175 93-298 limits assumed)", "assay": "SPR titration, steady state fit"}, "full length PHGDH [3]": {"biological_target": "T4, full length PHGDH (Homo sapiens, UniProt O43175)", "T4 sequence (O43175 1-533)": "T1 sequence (O43175 1-533)", "assay": "ITC titration", "type": "binding"}, "full length PHGDH [4]": {"biological_target": "T4, full length PHGDH", "assay": "SPR titration, steady state fit", "type": "binding", "description": "Considering this knowledge, a 1D NMR competition assay with NAD+ as the reference compound was developed. This screen employed the more physiologically relevant full length PHGDH protein, to provide continuity for affinity measurement during the subsequent analoguing phase. It is noteworthy that fragments and many of the synthesised analogues had no measurable activity in the human PHGDH protein NAD fluorescence intensity biochemical assay. Whilst the biophysical methods allowed a wide dynamic range of weak mM to sub μM affinities be determined, the biochemical assay could only be used to provide affinities that could drive SAR once those affinities were sub micromolar. In summary, a fragment crystal cocktail screen, supported with biophysical affinity measurements, provided the first known small molecule known nanomolar inhibitors of PHGDH and valuable tools for interrogating the biology of this target.\n(b) SPR titration data for NADH binding to full length PHGDH, Kd = 0.4 ± 0.03 μM determined from a steady state fit, with the kinetic fit curve shown in the inset. […] No label is printed directly beside the Kd values; 'Spot 1' and 'Spot 2' are printed at the top of the plots."}}}
{"smiles": "CNC(=O)c1cnc(NC2CCN(c3ccccn3)CC2)c(NCc2ccc(F)c(Oc3ccccc3)c2)c1", "note": "[Compound 8]", "values": [{"measurement": "Kd", "setting": "InhA.NADH", "result": "0.3 ± 0.1", "unit": "µM"}, {"measurement": "Kd", "setting": "Apo InhA", "result": "> 100", "unit": "µM"}, {"measurement": "Kd", "setting": "InhA.NAD+", "result": "> 100", "unit": "µM"}]}
{"smiles": "CCCc1cc(C(=O)N2CCC(C(=O)NC(CC(=O)NC)c3cccc(C(F)(F)F)c3)(c3ccc(Br)cc3)CC2)n(C)n1", "note": "(centres unmarked) [Compound 11]", "values": [{"measurement": "Kd", "setting": "InhA.NADH", "result": "5 ± 1.2", "unit": "µM"}, {"measurement": "Kd", "setting": "Apo InhA", "result": "12.4 ± 1.4", "unit": "µM"}, {"measurement": "Kd", "setting": "InhA.NAD+", "result": "0.3 ± 0.1", "unit": "µM"}]}
{"smiles": "COc1cc2[nH]c(C(=O)N[C@H](CO)c3ccccc3)cc2cc1Cl", "note": "[Compound 4]", "values": [{"measurement": "affinity", "setting": "PHGDH; method not stated", "result": "single digit"}]}
{"smiles": "CNC(=O)CN(Cc1ccc(C)cc1)C(=O)C[C@H]1CC[C@H](CC(=O)c2nnn(Cc3ccccc3)c2C)CC1", "note": "[Compound 7]", "values": [{"measurement": "Kd", "setting": "InhA.NADH", "result": "0.09 ± 0.06", "unit": "µM"}, {"measurement": "Kd", "setting": "Apo InhA", "result": "> 100", "unit": "µM"}, {"measurement": "Kd", "setting": "InhA.NAD+", "result": "46.7 ± 11.6", "unit": "µM"}]}
{"smiles": "CNC(=O)C1CCCN1C(=O)CC1CCC(NC(=O)C2CC(c3ccccc3)CN2)CC1", "note": "(centres unmarked) [Compound 12]", "values": [{"measurement": "Kd", "setting": "InhA.NADH", "result": "6.3 ± 2.6", "unit": "µM"}, {"measurement": "Kd", "setting": "Apo InhA", "result": "> 100", "unit": "µM"}, {"measurement": "Kd", "setting": "InhA.NAD+", "result": "> 100", "unit": "µM"}]}
{"smiles": "Cc1c(CC(=O)NC2CCC(CC(=O)N3CCN(CC(=O)CN)C(=O)C3Cc3ccccc3)CC2)sc2ccccc12", "note": "(centres unmarked) [Compound 6]", "values": [{"measurement": "Kd", "setting": "InhA.NADH", "result": "0.3 ± 0.2", "unit": "µM"}, {"measurement": "Kd", "setting": "Apo InhA", "result": "> 100", "unit": "µM"}, {"measurement": "Kd", "setting": "InhA.NAD+", "result": "13.4 ± 4.3", "unit": "µM"}]}
{"smiles": "NC(=O)c1cc2cc(F)ccc2[nH]1", "note": "[Compound 2, 5-fluoroindole-2-carboxamide]", "values": [{"measurement": "Kd", "setting": "[1]", "result": "980 ± 60", "unit": "µM"}]}
{"smiles": "CNC(=O)CN(C(=O)Cc1ccc(-n2cccn2)cc1)C1CCN(c2ccccn2)CC1", "note": "[Compound 9]", "values": [{"measurement": "Kd", "setting": "InhA.NADH", "result": "36.8 ± 3.3", "unit": "µM"}, {"measurement": "Kd", "setting": "Apo InhA", "result": "> 100", "unit": "µM"}, {"measurement": "Kd", "setting": "InhA.NAD+", "result": "> 100", "unit": "µM"}]}
{"smiles": "O=C(O)c1ccc([C@@H](CO)NC(=O)c2cc3cc(Cl)ccc3[nH]2)cc1", "note": "[Compound 5]", "values": [{"measurement": "fold improvement in affinity", "setting": "PHGDH; relative to compound 4", "result": 10, "unit": "fold"}]}
{"smiles": "NC(=O)C1=CN([C@@H]2O[C@H](COP(=O)(O)OP(=O)(O)OC[C@H]3O[C@@H](n4cnc5c(N)ncnc54)[C@H](O)[C@@H]3O)[C@@H](O)[C@H]2O)C=CC1", "note": "[NADH]", "values": [{"measurement": "Kd", "setting": "[2]", "result": "6.7 ± 0.5", "unit": "µM"}, {"measurement": "Kd", "setting": "full length PHGDH [3]", "result": "0.33 ± 0.08", "unit": "µM"}, {"measurement": "N (stoichiometry)", "setting": "full length PHGDH [3]", "result": "0.78 ± 0.01"}, {"measurement": "Kd", "setting": "full length PHGDH [4]; SPR steady state fit, full length PHGDH", "result": "0.4 ± 0.03", "unit": "µM"}, {"measurement": "fold tighter binding to the full-length protein than to the NAD binding domain", "setting": "full length PHGDH [4]; combination of ITC and SPR measurements", "result": "approximately 20 fold"}]}
{"smiles": "CNC(=O)C1CC(NC(=O)C(NC(=O)c2ccc(Cn3cccn3)cc2)[C@@H](C)OC(C)(C)C)CN1C(=O)c1ccccc1", "note": "(some centres unmarked) [Compound 10]", "values": [{"measurement": "Kd", "setting": "InhA.NADH", "result": "0.06 ± 0.03", "unit": "µM"}, {"measurement": "Kd", "setting": "Apo InhA", "result": "> 100", "unit": "µM"}, {"measurement": "Kd", "setting": "InhA.NAD+", "result": "49 ± 2.9", "unit": "µM"}]}
